# In patent publication US6376710B2, “Amidine compounds and their use as pesticides” (Sumitomo Chemical Co., Ltd., priority 2000, dated 2002):
# Like-named read-outs stand apart in the source and are kept apart here.
# Tests used:
# Type in all cases: in vivo
# [1] = system: house fly (Musca domeestica); assay: Test Example 3: treated filter paper with sucrose bait, house fly female adults, mortality; details: 24 h
# Procedure: On the bottom of a polyethylene cup of 5.5 cm in diameter was placed a filter paper of the same size, to which a water dilution (500 ppm) of each of the formulations obtained from present compounds 1, 2, 3, 4, 5, 6, 7, 8, 9, 10, 11, 12, 13, 14, 15, 16, 17, 18, 19, 20, 21, 25, 26, 27, 28, 29, 32, 33, 34, 35, 36, 37, 38, 39, 40, 41, 42, 43, 44, 45, 47, 51, 52, 53, 54, 55, 60, and 61 according to Formulation Example 1 was added dropwise in an amount of 0.7 ml, and the cup was uniformly charged with about 30 mg of sucrose as a bait. Ten female adults of house fly (Musca domeestica) were set free in each cup, which was then kept covered. After 1 day, their survival was examined to determine the mortality.
# [2] = system: German cockroach (Blattella germanica); assay: Test Example 2: treated filter paper with sucrose bait, German cockroach male adults, mortality; details: 144 h
# [3] = system: common mosquito (Culex pipiens pallens); assay: Test Example 4: treated water, common mosquito final-instar larvae, mortality; details: 192 h
# [4] = water dilution (500 ppm) of flowable (Formulation Example 1), 0.7 ml on filter paper, male adults, after 6 days, read-out: mortality
# [5] = active ingredient 3.5 ppm in ion-exchanged water (0.7 ml of 500 ppm dilution), final-instar larvae, after 8 days, read-out: mortality
SMILES,mortality at 500 µg/mL [1] [%],mortality at 500 µg/mL [2] [%],mortality at 3.5 ppm [3] [%],"mortality at 500 µg/mL [2, 4] [%]","mortality at 3.5 ppm [3, 5] [%]","mortality at 500 µg/mL ([1]; water dilution (500 ppm) of flowable (Formulation Example 1), 0.7 ml on filter paper, female adults, after 1 day, read-out: mortality) [%]"
"NC(=Nc1c(Cl)cc(C(F)(F)F)cc1Cl)C(F)(F)F [present compound 3, N-(2,6-Dichloro-4-trifluoromethylphenyl)-2,2,2-trifluoroacetamidine]",100,100,100,,,
"NC(=Nc1c([N+](=O)[O-])cc(C(F)(F)F)cc1[N+](=O)[O-])C(F)(F)C(F)F [present compound 26, N-(2,6-Dinitro-4-trifluoromethylphenyl)-2,2,3,3-tetrafluoropropionamidine]",100,100,100,,,
"NC(=Nc1c([N+](=O)[O-])cc(C(F)(F)F)cc1[N+](=O)[O-])C(F)(F)C(F)(F)Cl [present compound 35, 3-Chloro-N-(2,6-dinitro-4-trifluoromethylphenyl)-2,2,3,3-tetrafluoropropionamidine]",100,100,100,,,
"NC(=Nc1c(Cl)cc(C(F)(F)F)cc1Cl)C(F)(F)C(F)(F)C(F)(F)C(F)(F)F [present compound 30, N-(2,6-Dichloro-4-trifluoromethylphenyl)-2,2,3,3,4,4,5,5,5-nonafluoropentanamidine]",,,,100,100,
"NC(=Nc1c([N+](=O)[O-])cc(C(F)(F)F)cc1[N+](=O)[O-])C(F)(F)C(F)(F)C(F)(F)C(F)F [present compound 38, N-(2,6-Dinitro-4-trifluoromethylphenyl)-2,2,3,3,4,4,5,5-octafluoropentanamidine]",100,100,100,,,
"NC(=Nc1c(Cl)cc(C(F)(F)F)cc1Cl)C(F)(F)C(F)F [present compound 20, N-(2,6-Dichloro-4-trifluoromethylphenyl)-2,2,3,3-tetrafluoropropionamidine]",100,100,100,,,
"NC(=Nc1c([N+](=O)[O-])cc(C(F)(F)F)cc1[N+](=O)[O-])C(F)(F)C(F)C(F)(F)F (stereo not shown) [present compound 44, N-(2,6-Dinitro-4-trifluoromethylphenyl)-2,2,3,4,4,4-hexafluorobutyramidine]",100,100,100,,,
"NC(=Nc1c(Cl)cc(C(F)(F)F)cc1Cl)C(F)(F)C(F)(F)F [present compound 4, N-(2,6-dichloro-4-trifluoromethylphenyl)-2,2,3,3,3-pentafluoropropionamidine]",100,100,100,,,
"NC(=Nc1c([N+](=O)[O-])cc(C(F)(F)F)cc1[N+](=O)[O-])C(F)(F)C(F)(F)C(F)(F)F [present compound 21, N-(2,6-Dinitro-4-trifluoromethylphenyl)-2,2,3,3,4,4,4-heptafluorobutyramidine]",100,100,100,,,
"NC(=Nc1c([N+](=O)[O-])cc(C(F)(F)F)cc1[N+](=O)[O-])C(F)(F)C(F)(F)F [present compound 6, N-(2,6-Dinitro-4-trifluoromethylphenyl)-2,2,3,3,3-pentafluoropropionamidine]",100,100,100,,,
"NC(=Nc1c([N+](=O)[O-])cc(OC(F)(F)F)cc1[N+](=O)[O-])C(F)(F)C(F)(F)C(F)(F)F [present compound 45, N-(2,6-Dinitro-4-trifluoromethoxyphenyl)-2,2,3,3,4,4,4-heptafluorobutyramidine]",100,100,100,,,
"NC(=Nc1c([N+](=O)[O-])cc(C(F)(F)C(F)(F)F)cc1[N+](=O)[O-])C(F)(F)C(F)(F)F [present compound 43, N-(2,6-Dinitro-4-pentafluoroethylphenyl)-2,2,3,3,3-pentafluoropropionamidine]",100,100,100,,,
"NC(=Nc1c(Br)cc(OC(F)(F)F)cc1Br)C(F)(F)C(F)(F)F [present compound 16, N-(2,6-Dibromo-4-trifluoromethoxyphenyl)-2,2,3,3,3-pentafluoropropionamidine]",100,100,100,,,
"CSC(F)(F)C(N)=Nc1c([N+](=O)[O-])cc(C(F)(F)F)cc1[N+](=O)[O-] [present compound 51, N-(2,6-Dinitro-4-trifluoromethylphenyl)-2,2-difluoro-2-methylthioacetamidine]",100,100,100,,,
"COC(=O)NC(=Nc1c(Cl)cc(C(F)(F)F)cc1Cl)C(F)(F)C(F)(F)F [present compound 60, [1-(2,6-dichloro-4-trifluoromethylphenylimino)-2,2,3,3,3-pentafluoropropyl]carbamic acid methyl ester]",,,,100,100,100
"NC(=Nc1c(F)cc(C(F)(F)F)cc1Cl)C(F)(F)F [present compound 13, N-(2-Chloro-6-fluoro-4-trifluoromethylphenyl)-2,2,2-trifluoroacetamidine]",100,100,100,,,
"CCNC(=Nc1c(Cl)cc(C(F)(F)F)cc1Cl)C(Cl)Cl [present compound 58, N′-(2,6-Dichloro-4-trifluoromethylphenyl)-2,2-dichloro-N-ethylacetamidine]",,100,100,,,
"CN(C)C(=Nc1c(Cl)cc(C(F)(F)F)cc1Cl)C(F)(F)F [present compound 52, N′-(2,6-dichloro-4-trifluoromethylphenyl)-2,2,2-trifluoro-N,N-dimethylacetamidine]",100,100,,,,
"NC(=Nc1c([N+](=O)[O-])cc(C(F)(F)F)cc1[N+](=O)[O-])C(F)(F)F [present compound 33, N-(2,6-Dinitro-4-trifluoromethylphenyl)-2,2,2-trifluoroacetamidine]",100,100,,,,
"CCNC(=Nc1c([N+](=O)[O-])cc(C(F)(F)F)cc1[N+](=O)[O-])C(Cl)Cl [present compound 59, 2,2-Dichloro-N′-(2,6-dinitro-4-trifluoromethylphenyl)-N-ethylacetamidine]",,100,100,,,
"CCN(CC)C(=Nc1c(Cl)cc(C(F)(F)F)cc1Cl)C(F)(F)F [present compound 57, N′-(2,6-Dichloro-4-trifluoromethylphenyl)-N,N-diethyl-2,2,2-trifluoroacetamidine]",,100,100,,,
"NC(=Nc1c(Cl)cc(C(F)(F)F)cc1Cl)C(F)F [present compound 7, N-(2,6-Dichloro-4-trifluoromethylphenyl)-2,2-difluoroacetamidine]",100,100,,,,
"NC(=Nc1c(Cl)cc(C(F)(F)F)cc1Cl)C(F)(F)C(F)(F)C(F)(F)C(F)(F)C(F)(F)F [present compound 31, N-(2,6-Dichloro-4-trifluoromethylphenyl)-2,2,3,3,4,4,5,5,6,6,6-undecafluorohexanamidine]",,,,,100,
"NC(=Nc1c([N+](=O)[O-])cc(C(F)(F)C(F)(F)C(F)(F)F)cc1[N+](=O)[O-])C(F)(F)F [present compound 49, N-(2,6-Dinitro-4-heptafluoropropylphenyl)-2,2,2-trifluoroacetamidine]",,100,100,,,
"NC(=Nc1c([N+](=O)[O-])cc(C(F)(C(F)(F)F)C(F)(F)F)cc1[N+](=O)[O-])C(F)(F)C(F)(F)C(F)(F)F [present compound 50, N-{2,6-Dinitro-4-(1,2,2,2-tetrafluoro-1-trifluoromethylethyl)phenyl}-2,2,3,3,4,4,4-heptafluorobutyramidine]",,100,100,,,
"NC(=Nc1c(F)cc(C(F)(F)F)cc1F)C(F)(F)F [present compound 2, N-(2,6-Difluoro-4-trifluoromethylphenyl)-2,2,2-trifluoroacetamidine]",100,100,,,,
"NC(=Nc1c(Cl)cc(C(F)(F)F)cc1[N+](=O)[O-])C(F)(F)F [present compound 1, N-(2-chloro-6-nitro-4-trifluoromethylphenyl)-2,2,2-trifluoroacetamidine]",100,100,,,,
"CCCN(CCC)C(=Nc1c(Cl)cc(C(F)(F)F)cc1Cl)C(F)(F)F [present compound 56, N′-(2,6-dichloro-4-trifluoromethylphenyl)-2,2,2-trifluoro-N,N-dipropylacetamidine]",,100,,,,
"NC(=Nc1c([N+](=O)[O-])cc(C(F)(F)C(F)(F)C(F)(F)F)cc1[N+](=O)[O-])C(F)(F)C(F)(F)C(F)(F)F [present compound 48, N-(2,6-Dinitro-4-heptafluoropropylphenyl)-2,2,3,3,4,4,4-heptafluorobutyramidine]",,,100,,,
